# Measurements taken from ChEMBL document CHEMBL1201862, “PubChem BioAssay data set” (2004).
# Active and inactive are the calls of the source.
# Tests used:
# Genome polyprotein = Genome polyprotein (Hepatitis C virus, UniProt Q2Q167); test: disruption of hepatitis C core self-association – biochemical, TR-FRET, dose response (AID 2159); design: species or system Hepacivirus hominis;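 note: blocks dimerization of HCV core protein measured by TR-FRET between tagged core106 pairs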
# [1] = biological target: T1, Dual specificity protein phosphatase 6 (Rattus norvegicus, UniProt Q64346); test: inhibition of rat DUSP6 enzyme activity – biochemical, in vitro, primary screen (AID 425)
# T1 sequence (Q64346 whole entry): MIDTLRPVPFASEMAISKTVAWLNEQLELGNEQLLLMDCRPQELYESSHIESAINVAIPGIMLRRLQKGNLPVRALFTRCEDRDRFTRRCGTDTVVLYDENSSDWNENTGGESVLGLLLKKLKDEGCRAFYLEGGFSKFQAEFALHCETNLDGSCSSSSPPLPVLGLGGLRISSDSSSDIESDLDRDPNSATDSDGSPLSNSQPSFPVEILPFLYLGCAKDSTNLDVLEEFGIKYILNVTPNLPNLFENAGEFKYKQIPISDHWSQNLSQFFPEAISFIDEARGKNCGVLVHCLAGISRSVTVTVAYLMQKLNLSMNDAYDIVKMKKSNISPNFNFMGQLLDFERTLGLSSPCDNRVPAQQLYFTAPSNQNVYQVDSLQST
# [2] = biological target: T1, Dual specificity protein phosphatase 6; format: functional
# [3] = biological target: Induced myeloid leukemia cell differentiation protein Mcl-1 (Homo sapiens, UniProt Q07820); test: blockers of MCL1 binding to BIM peptide – biochemical, fluorescence polarization, BIM-BH3 peptide, 1536-well, dose response (AID 2217)
# [4] = biological target: T1, Dual specificity protein phosphatase 6
# [5] = biological target: Glyceraldehyde-3-phosphate dehydrogenase (Homo sapiens, UniProt P04406)
# Bcl-2-like protein 1 = Bcl-2-like protein 1 (Homo sapiens, UniProt Q07817); test: blockers of BCLXL peptide binding – biochemical, fluorescence polarization, 1536-well, selectivity assay for MCL1 inhibitor project, dose response (AID 2218)
# [6] = biological target: Eukaryotic translation initiation factor 4E (Mus musculus, UniProt P63073); test: blockers of eIF4G binding by eIF4E – biochemical, TR-FRET, dose response (AID 855); format: functional;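 note: potency for disrupting eIF4E binding to eIF4GI seen as loss of FRET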
# [7] = biological target: T2, Tyrosine-protein phosphatase non-receptor type 7 (Homo sapiens, UniProt P35236); format: functional
# T2 sequence (P35236 whole entry): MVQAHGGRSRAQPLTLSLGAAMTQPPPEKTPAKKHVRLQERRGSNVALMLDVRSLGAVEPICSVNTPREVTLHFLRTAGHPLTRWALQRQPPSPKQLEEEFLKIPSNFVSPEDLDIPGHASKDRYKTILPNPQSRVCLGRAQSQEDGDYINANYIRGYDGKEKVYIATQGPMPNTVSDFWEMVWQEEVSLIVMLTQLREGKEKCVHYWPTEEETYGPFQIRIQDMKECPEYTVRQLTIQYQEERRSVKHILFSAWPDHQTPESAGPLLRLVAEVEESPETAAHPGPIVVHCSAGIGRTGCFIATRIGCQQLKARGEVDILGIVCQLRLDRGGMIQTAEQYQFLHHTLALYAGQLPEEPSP
# NS3 = NS3 (Hepatitis C virus, UniProt A3EZJ3); test: PubChem AID 2173; design: species or system Hepacivirus hominis
# Large T antigen = Large T antigen (Simian virus 40, UniProt P03070); format: functional, Betapolyomavirus macacae;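 note: Confirmatory-stage PubChem screen for compounds that inhibit SV40 T antigen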
# [8] = viability of uninfected HEp-2 cells – cell-based, HTS, cytotoxicity control for RSV inhibitor project, dose response (AID 2410); format: functional; settings: human respiratory syncytial virus
# [9] = biological target: Mothers against decapentaplegic homolog 3 (Homo sapiens, UniProt P84022); test: inhibitors of SMAD-driven TGF-beta signaling – dose response (AID 715); format: functional
# Ion channel NompC = Ion channel NompC (Danio rerio, UniProt Q7T1G6); test: Fluorescence counterscreen assay for TRPML3 agonists: dose response cell-based high-throughput screening assay to identify agonists of the transient receptor potential channel N1 (TRPN1). [Related pubchem assays: 1526, 1424, 1448 ]; format: functional
# Mucolipin-3 = biological target: T3, Mucolipin-3 (Homo sapiens, UniProt Q8TDD5); test: Dose response cell-based high-throughput screening assay for agonists of the transient receptor potential channel ML3 (TRPML3). [Related pubchem assays: 1526, 1424, 1448 ]; format: functional
# T3 sequence (Q8TDD5 whole entry): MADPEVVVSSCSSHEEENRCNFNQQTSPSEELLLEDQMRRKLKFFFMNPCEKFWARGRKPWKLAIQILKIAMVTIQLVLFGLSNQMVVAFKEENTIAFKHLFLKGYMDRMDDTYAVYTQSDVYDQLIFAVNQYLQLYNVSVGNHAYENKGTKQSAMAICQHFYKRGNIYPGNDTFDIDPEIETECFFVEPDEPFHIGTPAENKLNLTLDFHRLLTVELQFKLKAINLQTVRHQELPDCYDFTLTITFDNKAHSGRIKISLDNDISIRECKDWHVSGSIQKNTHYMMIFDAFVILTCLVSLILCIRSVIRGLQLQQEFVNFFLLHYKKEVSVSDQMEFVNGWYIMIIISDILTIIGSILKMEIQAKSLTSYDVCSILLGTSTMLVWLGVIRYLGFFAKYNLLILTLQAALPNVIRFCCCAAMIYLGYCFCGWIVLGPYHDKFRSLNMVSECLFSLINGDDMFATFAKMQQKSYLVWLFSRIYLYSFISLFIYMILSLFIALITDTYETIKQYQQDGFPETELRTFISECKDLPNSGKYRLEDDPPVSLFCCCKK
# [10] = biological target: T4, Neuropeptide Y receptor type 2 (Homo sapiens, UniProt P49146); test: IC50 for human NPY-Y2 blockade – cell-based, counter-screen for NPY-Y1 antagonist project, dose response (AID 1278); format: functional
# T4 sequence (P49146 whole entry): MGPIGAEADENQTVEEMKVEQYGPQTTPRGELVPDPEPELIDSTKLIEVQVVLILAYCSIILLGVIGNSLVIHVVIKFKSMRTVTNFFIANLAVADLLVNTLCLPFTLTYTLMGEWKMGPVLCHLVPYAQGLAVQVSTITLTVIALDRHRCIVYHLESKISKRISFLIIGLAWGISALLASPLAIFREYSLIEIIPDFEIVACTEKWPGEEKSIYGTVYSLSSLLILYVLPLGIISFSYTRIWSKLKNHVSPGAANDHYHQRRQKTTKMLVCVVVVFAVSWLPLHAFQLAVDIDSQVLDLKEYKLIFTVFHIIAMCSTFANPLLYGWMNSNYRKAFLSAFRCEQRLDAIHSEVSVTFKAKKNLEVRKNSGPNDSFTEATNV
# [11] = biological target: T5, Neuropeptide Y receptor type 1 (Homo sapiens, UniProt P25929); test: IC50 of human NPY-Y1 blockers – cell-based, dose response (AID 1277); format: functional
# T5 sequence (P25929 whole entry): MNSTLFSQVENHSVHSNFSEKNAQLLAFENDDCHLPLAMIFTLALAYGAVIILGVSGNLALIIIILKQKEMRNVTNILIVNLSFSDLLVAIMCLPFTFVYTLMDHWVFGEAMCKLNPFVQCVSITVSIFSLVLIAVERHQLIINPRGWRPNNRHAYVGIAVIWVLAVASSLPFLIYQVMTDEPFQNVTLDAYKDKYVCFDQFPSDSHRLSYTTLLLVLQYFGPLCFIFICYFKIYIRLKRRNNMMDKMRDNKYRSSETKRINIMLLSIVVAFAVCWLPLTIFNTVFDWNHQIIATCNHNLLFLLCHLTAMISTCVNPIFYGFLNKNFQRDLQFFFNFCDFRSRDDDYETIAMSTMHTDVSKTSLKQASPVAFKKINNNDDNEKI
# Bcl-2-like protein 10 = Bcl-2-like protein 10 (Homo sapiens, UniProt Q9HD36); test: Concentration-response of Bcl-B inhibitors by biochemical FP with TR3 (AID 1243); format: functional
# [12] = biological target: Sphingosine 1-phosphate receptor 2 (Homo sapiens, UniProt O95136); test: Dose Response Cell Based Assay for Agonists of the S1P2 Receptor of Purchased Analogues. [Related pubchem assays: 729, 843, 854, 736 ]; format: functional
# [13] = Luminescence-based counterscreen assay for KLF5 inhibitors: dose response cell-based high throughput screening assay to identify cytotoxic compounds using the IEC-6 intestinal epithelial cell line. [Related pubchem assays: 1700 (Primary screen.), 1834 (Confirmation screen.), 1858 (Summary AID.), 1905 (Counterscreen.)]; format: functional
# [14] = A549 cell cytotoxicity, dose response, cytotoxicity control, plate reader, cherry-pick, antagonist series (AID 743412); format: functional, cell-based
# [15] = toxicity toward HepG2 liver cells – cell-based, plate reader, cherry-pick, antagonist series, cytotoxicity control, dose response (AID 743416); format: functional
# [16] = blockers of bursicon-stimulated LGR2 cAMP reporter – cell-based, HEK293, CRE-luciferase reporter, cherry pick, set 2, dose response (AID 743343); format: functional;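 note: transfected cells were stimulated with diluted bursicon conditioned medium after compound addition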
# [17] = blockade of melanocortin 4 receptor signaling – cell-based, plate reader, cherry pick, counter-screen for LGR2 antagonist project, dose response (AID 743444); format: functional;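 note: transfected HEK 293 cells stimulated with alpha-MSH peptide; potency of inhibitors of the alpha-MSH evoked signal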
# Chain of Glyceraldehyde-3-phosphate dehydrogenase (P04406 whole entry): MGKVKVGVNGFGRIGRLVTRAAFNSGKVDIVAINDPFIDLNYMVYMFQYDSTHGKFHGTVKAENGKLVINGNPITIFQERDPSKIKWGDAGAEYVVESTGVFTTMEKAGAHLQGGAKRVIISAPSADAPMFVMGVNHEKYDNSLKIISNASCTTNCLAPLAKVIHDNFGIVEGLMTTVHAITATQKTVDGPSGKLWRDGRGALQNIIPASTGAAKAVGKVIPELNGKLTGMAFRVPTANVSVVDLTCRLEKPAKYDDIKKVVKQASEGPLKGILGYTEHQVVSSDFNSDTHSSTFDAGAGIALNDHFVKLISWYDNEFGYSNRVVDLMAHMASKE
# Chain of Sphingosine 1-phosphate receptor 2 (O95136 whole entry): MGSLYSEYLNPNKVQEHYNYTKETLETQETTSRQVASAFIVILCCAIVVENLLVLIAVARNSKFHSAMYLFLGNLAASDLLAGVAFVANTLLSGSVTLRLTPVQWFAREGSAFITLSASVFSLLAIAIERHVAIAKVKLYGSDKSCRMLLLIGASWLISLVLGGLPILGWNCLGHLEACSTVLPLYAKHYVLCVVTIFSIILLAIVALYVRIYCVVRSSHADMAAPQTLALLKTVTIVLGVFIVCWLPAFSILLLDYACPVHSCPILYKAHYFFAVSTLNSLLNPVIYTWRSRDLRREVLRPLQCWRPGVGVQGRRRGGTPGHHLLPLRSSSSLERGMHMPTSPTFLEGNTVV
# Chain of Induced myeloid leukemia cell differentiation protein Mcl-1 (Q07820 whole entry): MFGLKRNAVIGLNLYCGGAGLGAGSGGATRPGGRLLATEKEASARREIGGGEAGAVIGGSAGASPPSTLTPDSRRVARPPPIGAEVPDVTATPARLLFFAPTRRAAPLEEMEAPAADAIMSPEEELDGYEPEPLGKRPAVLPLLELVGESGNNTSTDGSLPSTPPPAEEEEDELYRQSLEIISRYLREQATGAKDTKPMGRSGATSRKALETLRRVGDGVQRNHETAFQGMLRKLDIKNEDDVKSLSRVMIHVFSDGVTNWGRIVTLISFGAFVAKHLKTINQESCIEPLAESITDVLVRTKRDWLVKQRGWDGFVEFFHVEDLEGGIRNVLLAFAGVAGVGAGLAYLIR
# Chain of NS3 (A3EZJ3 whole entry): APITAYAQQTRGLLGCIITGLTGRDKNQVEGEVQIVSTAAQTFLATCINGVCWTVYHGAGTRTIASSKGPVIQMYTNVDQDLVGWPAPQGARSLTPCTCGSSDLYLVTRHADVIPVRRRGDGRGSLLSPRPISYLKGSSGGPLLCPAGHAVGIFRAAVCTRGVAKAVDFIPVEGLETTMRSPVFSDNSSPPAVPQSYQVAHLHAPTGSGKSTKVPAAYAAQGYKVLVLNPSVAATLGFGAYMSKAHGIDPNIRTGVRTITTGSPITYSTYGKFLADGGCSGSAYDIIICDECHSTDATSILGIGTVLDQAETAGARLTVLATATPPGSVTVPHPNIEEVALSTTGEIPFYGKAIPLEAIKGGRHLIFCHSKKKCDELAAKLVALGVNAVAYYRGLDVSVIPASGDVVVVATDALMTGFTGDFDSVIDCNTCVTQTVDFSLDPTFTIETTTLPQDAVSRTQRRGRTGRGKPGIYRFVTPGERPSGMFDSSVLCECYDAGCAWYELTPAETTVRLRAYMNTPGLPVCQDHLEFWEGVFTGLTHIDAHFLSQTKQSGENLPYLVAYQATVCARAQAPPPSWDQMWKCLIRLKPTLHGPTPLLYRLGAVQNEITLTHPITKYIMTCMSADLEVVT
# Chain of Bcl-2-like protein 10 (Q9HD36 whole entry): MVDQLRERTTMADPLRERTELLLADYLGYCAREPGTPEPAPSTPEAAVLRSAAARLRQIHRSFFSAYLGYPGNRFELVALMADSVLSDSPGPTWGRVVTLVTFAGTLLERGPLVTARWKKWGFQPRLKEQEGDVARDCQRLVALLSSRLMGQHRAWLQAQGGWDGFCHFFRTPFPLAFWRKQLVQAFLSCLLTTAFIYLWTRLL
# Chain of Mothers against decapentaplegic homolog 3 (P84022 whole entry): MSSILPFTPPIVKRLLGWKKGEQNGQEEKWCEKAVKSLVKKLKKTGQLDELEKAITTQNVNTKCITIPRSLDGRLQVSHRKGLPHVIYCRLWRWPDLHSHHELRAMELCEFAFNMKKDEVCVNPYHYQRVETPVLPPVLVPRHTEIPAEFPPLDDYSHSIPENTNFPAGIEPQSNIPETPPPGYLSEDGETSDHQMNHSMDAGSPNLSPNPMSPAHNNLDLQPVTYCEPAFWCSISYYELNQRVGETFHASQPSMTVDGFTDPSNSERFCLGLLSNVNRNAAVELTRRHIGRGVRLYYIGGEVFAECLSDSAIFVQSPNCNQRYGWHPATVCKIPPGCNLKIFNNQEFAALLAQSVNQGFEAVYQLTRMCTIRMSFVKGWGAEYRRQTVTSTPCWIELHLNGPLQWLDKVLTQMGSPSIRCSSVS
# Chain of Ion channel NompC (Q7T1G6 whole entry): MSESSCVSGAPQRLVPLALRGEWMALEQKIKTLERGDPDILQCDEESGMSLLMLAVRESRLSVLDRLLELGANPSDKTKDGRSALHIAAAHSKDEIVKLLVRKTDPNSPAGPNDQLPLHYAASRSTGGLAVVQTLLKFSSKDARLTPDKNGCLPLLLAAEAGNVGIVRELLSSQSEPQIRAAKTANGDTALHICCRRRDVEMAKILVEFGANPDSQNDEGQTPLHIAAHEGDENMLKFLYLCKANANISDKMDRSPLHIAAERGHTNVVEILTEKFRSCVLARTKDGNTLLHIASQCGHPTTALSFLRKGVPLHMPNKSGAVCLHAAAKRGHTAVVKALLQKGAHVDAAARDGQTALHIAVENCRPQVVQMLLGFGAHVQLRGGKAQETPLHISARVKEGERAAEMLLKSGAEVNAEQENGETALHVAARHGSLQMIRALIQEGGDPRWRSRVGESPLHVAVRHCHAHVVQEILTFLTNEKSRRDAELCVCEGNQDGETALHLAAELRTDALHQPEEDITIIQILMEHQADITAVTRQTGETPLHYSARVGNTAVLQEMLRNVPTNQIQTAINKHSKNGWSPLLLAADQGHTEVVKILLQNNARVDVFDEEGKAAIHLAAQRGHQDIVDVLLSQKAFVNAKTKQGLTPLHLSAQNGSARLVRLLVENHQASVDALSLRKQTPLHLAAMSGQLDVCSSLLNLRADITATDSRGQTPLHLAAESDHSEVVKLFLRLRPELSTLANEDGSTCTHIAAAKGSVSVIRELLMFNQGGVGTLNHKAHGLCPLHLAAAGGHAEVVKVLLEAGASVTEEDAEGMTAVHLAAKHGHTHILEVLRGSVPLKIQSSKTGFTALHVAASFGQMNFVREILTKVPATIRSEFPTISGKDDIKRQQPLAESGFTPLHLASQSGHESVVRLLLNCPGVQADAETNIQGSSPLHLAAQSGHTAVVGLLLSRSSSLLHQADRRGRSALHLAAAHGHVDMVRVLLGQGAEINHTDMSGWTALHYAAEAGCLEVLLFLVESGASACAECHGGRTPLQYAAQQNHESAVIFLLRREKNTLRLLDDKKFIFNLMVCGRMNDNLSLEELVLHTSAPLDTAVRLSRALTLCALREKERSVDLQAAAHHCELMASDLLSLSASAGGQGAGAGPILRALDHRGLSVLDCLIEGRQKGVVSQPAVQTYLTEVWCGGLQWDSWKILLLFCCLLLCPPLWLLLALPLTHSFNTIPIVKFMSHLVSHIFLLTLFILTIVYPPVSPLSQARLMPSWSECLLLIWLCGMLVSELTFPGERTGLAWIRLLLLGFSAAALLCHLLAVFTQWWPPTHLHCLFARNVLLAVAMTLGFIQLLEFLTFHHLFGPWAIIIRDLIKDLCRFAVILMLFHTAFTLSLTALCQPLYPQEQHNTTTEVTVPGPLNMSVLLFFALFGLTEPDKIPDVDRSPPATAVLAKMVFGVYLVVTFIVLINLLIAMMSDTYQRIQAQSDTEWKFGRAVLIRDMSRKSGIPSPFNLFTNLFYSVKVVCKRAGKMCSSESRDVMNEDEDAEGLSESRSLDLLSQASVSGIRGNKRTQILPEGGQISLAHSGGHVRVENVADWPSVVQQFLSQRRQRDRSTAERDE
# Chain of Bcl-2-like protein 1 (Q07817 whole entry): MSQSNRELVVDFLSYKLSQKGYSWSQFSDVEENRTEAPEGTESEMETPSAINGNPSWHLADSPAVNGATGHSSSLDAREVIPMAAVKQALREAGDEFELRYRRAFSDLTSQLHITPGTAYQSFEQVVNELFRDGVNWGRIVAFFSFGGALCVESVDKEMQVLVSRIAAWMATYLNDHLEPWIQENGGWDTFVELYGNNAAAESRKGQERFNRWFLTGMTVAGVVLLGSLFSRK
# Chain of Genome polyprotein (Q2Q167 whole entry): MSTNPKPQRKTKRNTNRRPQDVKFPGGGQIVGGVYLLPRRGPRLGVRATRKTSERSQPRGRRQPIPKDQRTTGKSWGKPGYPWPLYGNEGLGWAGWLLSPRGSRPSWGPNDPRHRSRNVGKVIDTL
# Chain of Large T antigen (P03070 whole entry): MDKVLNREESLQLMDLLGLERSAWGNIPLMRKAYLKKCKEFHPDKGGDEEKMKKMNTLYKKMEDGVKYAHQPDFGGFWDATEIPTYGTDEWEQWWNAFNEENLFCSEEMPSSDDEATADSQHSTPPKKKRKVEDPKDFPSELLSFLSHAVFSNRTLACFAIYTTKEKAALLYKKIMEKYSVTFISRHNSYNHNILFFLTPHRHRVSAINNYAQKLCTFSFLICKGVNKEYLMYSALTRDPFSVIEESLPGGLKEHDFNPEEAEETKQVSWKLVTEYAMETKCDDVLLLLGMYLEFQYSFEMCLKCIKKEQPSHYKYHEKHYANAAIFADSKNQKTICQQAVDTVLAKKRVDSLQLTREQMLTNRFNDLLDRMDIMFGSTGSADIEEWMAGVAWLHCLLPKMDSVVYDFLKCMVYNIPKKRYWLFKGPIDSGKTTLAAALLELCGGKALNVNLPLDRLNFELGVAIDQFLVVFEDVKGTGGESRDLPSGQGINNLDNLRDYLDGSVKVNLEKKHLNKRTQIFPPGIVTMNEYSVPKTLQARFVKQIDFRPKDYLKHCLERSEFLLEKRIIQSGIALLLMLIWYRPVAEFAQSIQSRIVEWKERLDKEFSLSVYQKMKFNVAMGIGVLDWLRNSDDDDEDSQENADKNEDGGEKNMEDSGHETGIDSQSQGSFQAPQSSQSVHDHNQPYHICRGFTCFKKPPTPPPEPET
smiles,measurement,setting,value
CCCCCC#CCC#CCC#CCC#CCCCC(=O)O,IC50,Genome polyprotein,46.3 µM (not active)
same,IC50,[1],0.832 µM (active)
same,IC50,[2],30.4 µM (active)
same,IC50,[3],0.441 µM (active)
same,IC50,[4],25.1 µM (active)
same,IC50,[5],> 100 µM (not active)
same,IC50,Bcl-2-like protein 1,> 109 µM (not active)
same,IC50,[6],32.1 µM (inactive)
same,IC50,[7],15.4 µM (active)
O=C1NC(=O)N(c2ccccc2)C(=O)/C1=C\c1ccc([N+](=O)[O-])s1,IC50,NS3,15.7 µM (not active)
same,IC50,Large T antigen,42.1 µM (active)
Cc1cccc2nc(-c3cccc(NC(=O)Cc4ccccc4)c3)cn12,CC50,[8],42.8 µM (active)
same,IC50,cells,29.7 µM (active)
CC(c1ccccc1)C1CC(=O)N(C2CCCCC2)C1=O (stereo not given),IC50,[9],125 µM (inconclusive)
same,EC50,Ion channel NompC,> 29.9 µM (not active)
same,EC50,Mucolipin-3,4.1 µM (active)
CCCCNC(=O)c1onc(CSc2ccc(Cl)cc2)c1C(=O)O,IC50,[10],9.93 µM (active)
same,IC50,[11],16.8 µM (not active)
CCSc1nc(NN)c2c3c(sc2n1)CN(C)CC3,EC50,Bcl-2-like protein 10,7.43 µM (active)
Cc1cc(C(=O)CSc2nc[nH]n2)c(C)n1Cc1ccccc1,EC50,[12],> 30 µM (not active)
COc1ccc(Cl)cc1C(=O)Nc1nc2ccccc2[nH]1,IC50,[13],> 39.8 µM (not active)
same,AC50,[14],> 52 µM (inactive)
same,AC50,[15],> 52 µM (inactive)
same,AC50,[16],2.05 µM (active)
same,AC50,[17],2.46 µM (active)
